The values below come from PubChem BioAssay AID256 (DTP/NCI, 2004).

The subject of the experiment is CD2F1 mice, L1210 leukemia ip, survival T/C. The experiment is described as follows: NCI In Vivo Anticancer Drug Screen. Data for tumor model L1210 Leukemia (intraperitoneal) in CD2F1 (CDF1) mice. As to conditions: higher = longer survival. Summed up: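 Implant tumor; dose compound or vehicle; measure endpoint in both groups; report treated divided by control.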
The mark [1] stands for this setting: endpoint: mean survival time, dose: 100.0 mg/kg/injection, schedule: Q04DX003 (ip), vehicle: saline.
Setting [2] is: endpoint: mean survival time, dose: 200.0 mg/kg/injection, schedule: Q04DX003 (ip), vehicle: saline.
[3] abbreviates: endpoint: mean survival time, dose: 400.0 mg/kg/injection, schedule: Q04DX003 (ip), vehicle: saline.
Setting [4] is: endpoint: mean survival time, dose: 100.0 mg/kg/injection, schedule: Q01DX001 (ip), vehicle: saline with Tween-80.
The mark [5] stands for this setting: endpoint: mean survival time, dose: 200.0 mg/kg/injection, schedule: Q01DX001 (ip), vehicle: saline with Tween-80.
[6] abbreviates: endpoint: mean survival time, dose: 400.0 mg/kg/injection, schedule: Q01DX001 (ip), vehicle: saline with Tween-80.
[7] abbreviates: endpoint: mean survival time, dose: 12.5 mg/kg/injection, schedule: Q01DX009 (ip), vehicle: saline with Tween-80.
Where [8] appears, read: endpoint: mean survival time, dose: 100.0 mg/kg/injection, schedule: Q01DX001 (ip), vehicle: saline.
Where [9] appears, read: endpoint: mean survival time, dose: 200.0 mg/kg/injection, schedule: Q01DX001 (ip), vehicle: saline.
Where [10] appears, read: endpoint: mean survival time, dose: 400.0 mg/kg/injection, schedule: Q01DX001 (ip), vehicle: saline.

Molecules are shown by their SMILES. “And” between values parts separate entries of the source, which are not always exact repeats. Equal entries are not always repeated. Toxic doses and inconclusive results are not listed.

In the case of `O=[N+]([O-])c1ccc(SC(=S)N(c2ccccc2)c2ccccc2)c([N+](=O)[O-])c1`, the T/C is 87 % of control (endpoint: mean survival time, dose: 100.0 mg/kg/injection, schedule: Q01DX001 (ip), vehicle: Klucel (hydroxypropylcellulose) (HPC)); 91 % of control (endpoint: mean survival time, dose: 200.0 mg/kg/injection, schedule: Q01DX001 (ip), vehicle: Klucel (hydroxypropylcellulose) (HPC)); 100 % of control (endpoint: mean survival time, dose: 400.0 mg/kg/injection, schedule: Q01DX001 (ip), vehicle: Klucel (hydroxypropylcellulose) (HPC)).
Turning to `COC(=O)CC(=O)C1(C)CC1`, the T/C is, setting by setting: under setting [1], 90 % of control; under setting [2], 93 % of control; under setting [3], 96 % of control.
Take `O=C(O)Cc1cc(=O)oc2ccccc12`: the T/C by setting is: under setting [4], 104 % of control; under setting [5], 104 % of control; under setting [6], 96 % of control.
Take `CCCCCCCCCCCCCCCC[N+](C)(C)CC#CCCl`: the T/C (endpoint: mean survival time, dose: 6.25 mg/kg/injection, schedule: Q04DX002 (ip), vehicle: saline with Tween-80) is 96 % of control; the T/C (endpoint: mean survival time, dose: 12.5 mg/kg/injection, schedule: Q04DX002 (ip), vehicle: saline with Tween-80) is 88 % of control; the T/C (endpoint: mean survival time, dose: 25.0 mg/kg/injection, schedule: Q04DX002 (ip), vehicle: saline with Tween-80) is 88 % of control.
`COc1ccc(OC)c(C(=O)C[n+]2ccccc2)c1`: the T/C reads like this: under setting [7], 101 % of control; (endpoint: mean survival time, dose: 12.5 mg/kg/injection, schedule: Q04DX003 (ip), vehicle: saline) 106 % of control; (endpoint: mean survival time, dose: 25.0 mg/kg/injection, schedule: Q01DX009 (ip), vehicle: saline with Tween-80) 103 % of control; (endpoint: mean survival time, dose: 25.0 mg/kg/injection, schedule: Q04DX003 (ip), vehicle: saline) 109 % of control; (endpoint: mean survival time, dose: 50.0 mg/kg/injection, schedule: Q01DX009 (ip), vehicle: saline with Tween-80) 100 % of control; (endpoint: mean survival time, dose: 50.0 mg/kg/injection, schedule: Q04DX003 (ip), vehicle: saline) 111 % of control.
Regarding `Nc1nc(N)c(-c2ccc(Cl)cc2)c(CNc2cccc([N+](=O)[O-])c2)n1`, the T/C is, setting by setting: (endpoint: mean survival time, dose: 100.0 mg/kg/injection, schedule: Q01DX001 (ip), vehicle: other) 95 % of control; (endpoint: mean survival time, dose: 200.0 mg/kg/injection, schedule: Q01DX001 (ip), vehicle: other) 94 % of control; (endpoint: mean survival time, dose: 400.0 mg/kg/injection, schedule: Q01DX001 (ip), vehicle: other) 90 % of control.
With `O=[N+]([O-])c1ccc(S(=O)(=O)Cc2ccccc2)c([N+](=O)[O-])c1`, the T/C is, setting by setting: (endpoint: mean survival time, dose: 75.0 mg/kg/injection, schedule: Q01DX001 (ip), vehicle: other) 98 % of control; (endpoint: mean survival time, dose: 150.0 mg/kg/injection, schedule: Q01DX001 (ip), vehicle: other) 93 % of control; (endpoint: mean survival time, dose: 300.0 mg/kg/injection, schedule: Q01DX001 (ip), vehicle: other) 106 % of control.
In the case of `CC(C)(C)C1CCC(S(=O)c2ccccc2)CC1` (stereo not given), the T/C by setting is: under setting [4], 105 % of control; (endpoint: mean survival time, dose: 100.0 mg/kg/injection, schedule: Q04DX002 (ip), vehicle: saline with Tween-80) 90 % of control; under setting [5], 100 % of control; (endpoint: mean survival time, dose: 200.0 mg/kg/injection, schedule: Q04DX002 (ip), vehicle: saline with Tween-80) 93 % of control; under setting [6], 103 % of control; (endpoint: mean survival time, dose: 400.0 mg/kg/injection, schedule: Q04DX002 (ip), vehicle: saline with Tween-80) 93 % of control.
Consider `CC(CN1CC(=O)NC(=O)C1)N1CC(=O)NC(=O)C1` (stereo not given), for which the T/C reads like this: (endpoint: mean survival time, dose: 4.0 mg/kg/injection, schedule: Q01DX009 (ip), vehicle: saline) 112 % of control; (endpoint: mean survival time, dose: 8.0 mg/kg/injection, schedule: Q01DX009 (ip), vehicle: saline) 123 % of control; (endpoint: mean survival time, dose: 32.0 mg/kg/injection, schedule: Q01DX009 (ip), vehicle: saline) 158 % of control; (endpoint: mean survival time, dose: 32.0 mg/kg/injection, schedule: Q04DX003 (ip), vehicle: saline) 117 % of control; (endpoint: mean survival time, dose: 50.0 mg/kg/injection, schedule: Q01DX001 (ip), vehicle: saline) 96 % of control; (endpoint: mean survival time, dose: 64.0 mg/kg/injection, schedule: Q01DX009 (ip), vehicle: saline) 124 % of control. Moreover, the T/C reads like this: (endpoint: mean survival time, dose: 128.0 mg/kg/injection, schedule: Q01DX009 (ip), vehicle: saline) 104 % of control; (endpoint: mean survival time, dose: 256.0 mg/kg/injection, schedule: Q04DX003 (ip), vehicle: saline) 196 % of control; (endpoint: mean survival time, dose: 512.0 mg/kg/injection, schedule: Q04DX003 (ip), vehicle: saline) 251 % of control; (endpoint: median survival time, dose: 180.0 mg/kg/injection, schedule: Q04DX003 (ip), vehicle: Klucel (hydroxypropylcellulose) (HPC)) 169 % of control and 170 % of control; (endpoint: median survival time, dose: 300.0 mg/kg/injection, schedule: Q04DX003 (ip), vehicle: Klucel (hydroxypropylcellulose) (HPC)) 236 % of control; (endpoint: median survival time, dose: 500.0 mg/kg/injection, schedule: Q04DX003 (ip), vehicle: Klucel (hydroxypropylcellulose) (HPC)) 122 % of control.
With `CN(C)c1ccc2c(NCCCCCCNc3ccnc4cc(N(C)C)ccc34)ccnc2c1`, the T/C was 105 % of control (endpoint: median survival time, dose: 1.56 mg/kg/injection, schedule: Q01DX009 (ip), vehicle: distilled water + Tween-80 + alcohol); 104 % of control (endpoint: median survival time, dose: 3.12 mg/kg/injection, schedule: Q01DX009 (ip), vehicle: distilled water + Tween-80 + alcohol); 111 % of control (endpoint: median survival time, dose: 6.25 mg/kg/injection, schedule: Q01DX009 (ip), vehicle: distilled water + Tween-80 + alcohol).
On to `O=C(Nc1c[nH]c(=O)[nH]c1=O)C(Cl)Cl`, for which the T/C was 109 % of control (endpoint: mean survival time, dose: 100.0 mg/kg/injection, schedule: Q04DX003 (ip), vehicle: other) and 94 % of control (endpoint: mean survival time, dose: 200.0 mg/kg/injection, schedule: Q04DX003 (ip), vehicle: other).
Take `CCCCCCCCCCCCCCCc1ccc(C(=O)C[n+]2ccccc2)cc1`: the T/C is 117 % of control under setting [7]; 103 % of control (endpoint: mean survival time, dose: 12.5 mg/kg/injection, schedule: Q04DX003 (ip), vehicle: saline with Tween-80); 106 % of control (endpoint: mean survival time, dose: 25.0 mg/kg/injection, schedule: Q04DX003 (ip), vehicle: saline with Tween-80); 111 % of control (endpoint: mean survival time, dose: 50.0 mg/kg/injection, schedule: Q04DX003 (ip), vehicle: saline with Tween-80).
`COc1cc(CO)ccc1Oc1ccc(C)cc1`: the T/C is, setting by setting: under setting [8], 104 % of control; under setting [1], 100 % of control; under setting [9], 107 % of control; under setting [2], 100 % of control; under setting [10], 100 % of control; under setting [3], 101 % of control.
As for `CS(=O)(=O)OCC1C(COS(C)(=O)=O)N(S(C)(=O)=O)S(=O)N1S(C)(=O)=O` (stereo not given), the T/C under setting [8] was 100 % of control; the T/C under setting [1] is 111 % of control; the T/C under setting [9] is 95 % of control; the T/C under setting [2] is 108 % of control; the T/C under setting [10] is 94 % of control; the T/C under setting [3] is 91 % of control.
Regarding `CC(C)(CNC1=NCCO1)NC1=NCCO1`, the T/C was 104 % of control under setting [1] and 104 % of control under setting [2].
As for `CNCCC(=N)C(=N)CCNC`, the T/C is 111 % of control (endpoint: mean survival time, dose: 100.0 mg/kg/injection, schedule: Q04DX002 (ip), vehicle: saline); 106 % of control (endpoint: mean survival time, dose: 200.0 mg/kg/injection, schedule: Q04DX002 (ip), vehicle: saline); 103 % of control (endpoint: mean survival time, dose: 400.0 mg/kg/injection, schedule: Q04DX002 (ip), vehicle: saline).
As for `O=C(Nc1ccccc1C(F)(F)F)OCCOc1ccccc1Cl`, the T/C is 103 % of control (endpoint: mean survival time, dose: 100.0 mg/kg/injection, schedule: Q01DX009 (ip), vehicle: Klucel (hydroxypropylcellulose) (HPC)) and 89 % of control (endpoint: mean survival time, dose: 400.0 mg/kg/injection, schedule: Q01DX009 (ip), vehicle: Klucel (hydroxypropylcellulose) (HPC)).
